How the values were obtained:
Assay in all cases: kinome screen (33PanQinase)
Assay type in all cases: biochemical
CAMK2B = target: T1, CAMK2B (Homo sapiens, UniProt Q13554)
T1 construct: purchased Reaction Biology Europe GmbH (formerly ProQinase)
Protocol: (§1) The Kinome Screening was performed by Reaction Biology Europe GmbH (http://reactionbiology.com; Freiburg i. Br., Germany).

CDK16/CycY = target: T2, CDK16/CycY (Homo sapiens, UniProt Q00536)
T2 construct: purchased Reaction Biology Europe GmbH (formerly ProQinase)
Protocol: as §1

EIF2AK2 = target: T3, EIF2AK2 (Homo sapiens, UniProt P19525)
T3 construct: purchased Reaction Biology Europe GmbH (formerly ProQinase)
Protocol: as §1

JAK2 = target: T4, JAK2 (Homo sapiens, UniProt O60674)
T4 construct: purchased Reaction Biology Europe GmbH (formerly ProQinase)
Protocol: as §1

NEK1 = target: T5, NEK1 (Homo sapiens, UniProt Q96PY6)
T5 construct: purchased Reaction Biology Europe GmbH (formerly ProQinase)
T5 sequence (Q96PY6 1-1258): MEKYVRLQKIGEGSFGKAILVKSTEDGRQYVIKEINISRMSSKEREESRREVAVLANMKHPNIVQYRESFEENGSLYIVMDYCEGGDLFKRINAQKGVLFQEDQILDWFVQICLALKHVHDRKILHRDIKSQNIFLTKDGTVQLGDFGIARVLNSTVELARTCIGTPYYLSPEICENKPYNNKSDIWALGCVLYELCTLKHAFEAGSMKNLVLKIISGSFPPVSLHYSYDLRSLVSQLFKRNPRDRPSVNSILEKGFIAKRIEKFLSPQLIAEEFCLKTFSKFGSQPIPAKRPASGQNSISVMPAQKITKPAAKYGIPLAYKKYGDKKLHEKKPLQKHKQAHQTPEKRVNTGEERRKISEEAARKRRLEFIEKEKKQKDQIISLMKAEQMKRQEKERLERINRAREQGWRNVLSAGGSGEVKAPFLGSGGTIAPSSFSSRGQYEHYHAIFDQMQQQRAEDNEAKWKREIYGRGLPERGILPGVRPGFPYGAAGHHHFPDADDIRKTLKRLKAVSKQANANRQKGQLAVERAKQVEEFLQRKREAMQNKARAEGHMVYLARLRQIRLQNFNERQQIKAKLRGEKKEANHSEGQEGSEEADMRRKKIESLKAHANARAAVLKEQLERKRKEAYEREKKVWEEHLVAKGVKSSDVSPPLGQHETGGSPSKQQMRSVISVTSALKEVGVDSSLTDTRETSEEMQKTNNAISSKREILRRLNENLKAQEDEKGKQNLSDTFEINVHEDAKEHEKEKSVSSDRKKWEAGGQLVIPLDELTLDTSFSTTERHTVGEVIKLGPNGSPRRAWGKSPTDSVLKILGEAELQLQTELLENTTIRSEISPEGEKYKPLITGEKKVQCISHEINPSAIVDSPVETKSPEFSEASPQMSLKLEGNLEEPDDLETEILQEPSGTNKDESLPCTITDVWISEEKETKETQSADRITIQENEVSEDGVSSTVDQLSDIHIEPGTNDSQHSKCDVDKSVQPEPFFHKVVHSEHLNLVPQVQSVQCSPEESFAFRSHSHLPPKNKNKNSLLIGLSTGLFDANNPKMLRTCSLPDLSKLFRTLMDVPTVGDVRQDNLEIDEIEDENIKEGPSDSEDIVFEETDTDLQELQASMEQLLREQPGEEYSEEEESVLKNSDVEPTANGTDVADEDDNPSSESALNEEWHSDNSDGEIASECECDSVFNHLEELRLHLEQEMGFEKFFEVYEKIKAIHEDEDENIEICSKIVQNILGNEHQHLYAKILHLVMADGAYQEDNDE
Protocol: as §1

PRKG2 = target: T6, PRKG2 (Homo sapiens, UniProt Q13237)
T6 construct: purchased Reaction Biology Europe GmbH (formerly ProQinase)
T6 sequence (Q13237 1-762): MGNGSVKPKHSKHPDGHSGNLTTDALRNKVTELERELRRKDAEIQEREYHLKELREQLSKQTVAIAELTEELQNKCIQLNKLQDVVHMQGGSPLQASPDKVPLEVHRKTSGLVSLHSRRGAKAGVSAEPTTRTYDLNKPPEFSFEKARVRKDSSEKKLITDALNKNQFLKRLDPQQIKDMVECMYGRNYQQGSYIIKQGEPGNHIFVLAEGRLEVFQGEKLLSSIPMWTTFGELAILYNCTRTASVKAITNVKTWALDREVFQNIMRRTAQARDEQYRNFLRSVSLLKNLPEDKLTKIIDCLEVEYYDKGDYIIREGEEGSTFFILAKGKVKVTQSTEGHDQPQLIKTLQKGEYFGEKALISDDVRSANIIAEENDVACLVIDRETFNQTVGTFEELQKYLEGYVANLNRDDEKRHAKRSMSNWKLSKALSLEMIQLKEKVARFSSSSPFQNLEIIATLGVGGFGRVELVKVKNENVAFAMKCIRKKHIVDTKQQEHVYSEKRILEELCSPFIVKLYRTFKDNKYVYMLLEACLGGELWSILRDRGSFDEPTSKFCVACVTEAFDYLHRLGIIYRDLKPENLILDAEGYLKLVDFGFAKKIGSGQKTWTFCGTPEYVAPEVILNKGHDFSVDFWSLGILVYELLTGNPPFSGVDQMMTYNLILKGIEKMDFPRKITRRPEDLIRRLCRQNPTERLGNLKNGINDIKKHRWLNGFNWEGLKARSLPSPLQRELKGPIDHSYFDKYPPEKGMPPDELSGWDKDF
Protocol: as §1

WEE1 = target: T7, WEE1 (Homo sapiens, UniProt P30291)
T7 construct: purchased Reaction Biology Europe GmbH (formerly ProQinase)
Protocol: as §1

T7 sequence (P30291 whole entry): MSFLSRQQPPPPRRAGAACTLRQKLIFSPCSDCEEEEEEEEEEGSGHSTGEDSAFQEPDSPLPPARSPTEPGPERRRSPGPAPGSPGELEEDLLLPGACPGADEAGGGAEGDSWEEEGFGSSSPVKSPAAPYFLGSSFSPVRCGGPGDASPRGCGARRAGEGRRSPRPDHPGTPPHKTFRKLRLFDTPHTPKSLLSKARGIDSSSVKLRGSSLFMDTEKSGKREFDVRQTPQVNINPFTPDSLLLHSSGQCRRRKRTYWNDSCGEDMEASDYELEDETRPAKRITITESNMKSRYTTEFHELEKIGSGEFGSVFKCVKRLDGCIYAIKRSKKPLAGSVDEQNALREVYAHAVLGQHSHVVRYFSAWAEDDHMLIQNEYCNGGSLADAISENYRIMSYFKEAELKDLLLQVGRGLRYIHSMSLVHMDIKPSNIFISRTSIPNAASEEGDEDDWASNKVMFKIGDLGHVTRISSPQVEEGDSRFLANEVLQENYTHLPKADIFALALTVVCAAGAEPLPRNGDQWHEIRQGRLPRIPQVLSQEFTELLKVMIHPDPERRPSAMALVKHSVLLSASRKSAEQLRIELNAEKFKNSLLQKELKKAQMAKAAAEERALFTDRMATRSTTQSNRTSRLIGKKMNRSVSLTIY
T3 sequence (P19525 whole entry): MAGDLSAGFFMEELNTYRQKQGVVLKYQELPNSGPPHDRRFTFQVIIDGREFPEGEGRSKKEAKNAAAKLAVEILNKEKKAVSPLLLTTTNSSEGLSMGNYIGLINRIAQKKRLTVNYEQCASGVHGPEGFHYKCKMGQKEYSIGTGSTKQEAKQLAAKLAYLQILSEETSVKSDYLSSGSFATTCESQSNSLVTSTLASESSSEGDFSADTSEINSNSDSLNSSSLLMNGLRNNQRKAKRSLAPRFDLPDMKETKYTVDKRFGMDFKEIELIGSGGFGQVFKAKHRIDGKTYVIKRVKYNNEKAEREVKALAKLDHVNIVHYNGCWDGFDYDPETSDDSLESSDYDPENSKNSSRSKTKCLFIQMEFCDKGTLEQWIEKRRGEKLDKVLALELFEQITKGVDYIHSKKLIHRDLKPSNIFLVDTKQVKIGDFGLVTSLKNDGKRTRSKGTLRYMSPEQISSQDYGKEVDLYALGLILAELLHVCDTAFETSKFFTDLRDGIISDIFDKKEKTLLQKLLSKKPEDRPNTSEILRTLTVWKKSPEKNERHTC
T1 sequence (Q13554 whole entry): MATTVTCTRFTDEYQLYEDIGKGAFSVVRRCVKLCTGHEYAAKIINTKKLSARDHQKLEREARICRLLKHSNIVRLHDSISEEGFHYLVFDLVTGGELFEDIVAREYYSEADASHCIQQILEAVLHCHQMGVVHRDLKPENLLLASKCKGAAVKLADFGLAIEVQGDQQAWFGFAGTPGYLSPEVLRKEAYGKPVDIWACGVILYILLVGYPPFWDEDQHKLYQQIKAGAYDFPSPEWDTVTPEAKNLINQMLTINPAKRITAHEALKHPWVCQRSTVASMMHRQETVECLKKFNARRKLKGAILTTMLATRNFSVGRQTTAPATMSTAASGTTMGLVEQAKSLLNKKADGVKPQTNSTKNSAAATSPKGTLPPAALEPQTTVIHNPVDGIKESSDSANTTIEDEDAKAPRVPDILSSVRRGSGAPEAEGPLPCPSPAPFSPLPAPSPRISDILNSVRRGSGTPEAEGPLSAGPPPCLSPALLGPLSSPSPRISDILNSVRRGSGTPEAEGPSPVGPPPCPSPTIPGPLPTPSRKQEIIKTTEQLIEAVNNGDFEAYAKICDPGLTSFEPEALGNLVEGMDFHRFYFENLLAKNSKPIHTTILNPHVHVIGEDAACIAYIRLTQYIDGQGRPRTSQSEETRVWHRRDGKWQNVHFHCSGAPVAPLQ
T2 sequence (Q00536 whole entry): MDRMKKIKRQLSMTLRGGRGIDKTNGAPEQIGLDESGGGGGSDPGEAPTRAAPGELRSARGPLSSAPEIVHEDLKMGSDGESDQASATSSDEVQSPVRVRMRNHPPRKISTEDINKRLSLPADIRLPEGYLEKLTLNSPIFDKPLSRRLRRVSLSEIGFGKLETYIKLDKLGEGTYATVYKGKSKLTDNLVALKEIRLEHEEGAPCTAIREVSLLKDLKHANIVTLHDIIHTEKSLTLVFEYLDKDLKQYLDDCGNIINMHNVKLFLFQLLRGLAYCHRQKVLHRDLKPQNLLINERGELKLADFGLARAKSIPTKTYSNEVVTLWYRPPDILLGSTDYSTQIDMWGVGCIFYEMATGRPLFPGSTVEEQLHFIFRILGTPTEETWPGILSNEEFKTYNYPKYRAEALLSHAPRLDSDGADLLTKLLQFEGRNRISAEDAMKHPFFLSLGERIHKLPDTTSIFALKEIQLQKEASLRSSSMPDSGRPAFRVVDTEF
T2 sequence (Q8ND76 whole entry partner): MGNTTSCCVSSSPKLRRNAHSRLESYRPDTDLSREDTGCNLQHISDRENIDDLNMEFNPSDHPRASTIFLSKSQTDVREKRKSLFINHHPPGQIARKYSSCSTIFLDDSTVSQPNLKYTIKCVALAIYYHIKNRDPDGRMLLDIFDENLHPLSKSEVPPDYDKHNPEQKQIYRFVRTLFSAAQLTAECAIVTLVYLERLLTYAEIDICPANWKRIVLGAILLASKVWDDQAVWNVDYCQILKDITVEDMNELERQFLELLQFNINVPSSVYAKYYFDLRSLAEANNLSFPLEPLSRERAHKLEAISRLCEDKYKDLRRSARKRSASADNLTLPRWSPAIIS
T4 sequence (O60674 whole entry): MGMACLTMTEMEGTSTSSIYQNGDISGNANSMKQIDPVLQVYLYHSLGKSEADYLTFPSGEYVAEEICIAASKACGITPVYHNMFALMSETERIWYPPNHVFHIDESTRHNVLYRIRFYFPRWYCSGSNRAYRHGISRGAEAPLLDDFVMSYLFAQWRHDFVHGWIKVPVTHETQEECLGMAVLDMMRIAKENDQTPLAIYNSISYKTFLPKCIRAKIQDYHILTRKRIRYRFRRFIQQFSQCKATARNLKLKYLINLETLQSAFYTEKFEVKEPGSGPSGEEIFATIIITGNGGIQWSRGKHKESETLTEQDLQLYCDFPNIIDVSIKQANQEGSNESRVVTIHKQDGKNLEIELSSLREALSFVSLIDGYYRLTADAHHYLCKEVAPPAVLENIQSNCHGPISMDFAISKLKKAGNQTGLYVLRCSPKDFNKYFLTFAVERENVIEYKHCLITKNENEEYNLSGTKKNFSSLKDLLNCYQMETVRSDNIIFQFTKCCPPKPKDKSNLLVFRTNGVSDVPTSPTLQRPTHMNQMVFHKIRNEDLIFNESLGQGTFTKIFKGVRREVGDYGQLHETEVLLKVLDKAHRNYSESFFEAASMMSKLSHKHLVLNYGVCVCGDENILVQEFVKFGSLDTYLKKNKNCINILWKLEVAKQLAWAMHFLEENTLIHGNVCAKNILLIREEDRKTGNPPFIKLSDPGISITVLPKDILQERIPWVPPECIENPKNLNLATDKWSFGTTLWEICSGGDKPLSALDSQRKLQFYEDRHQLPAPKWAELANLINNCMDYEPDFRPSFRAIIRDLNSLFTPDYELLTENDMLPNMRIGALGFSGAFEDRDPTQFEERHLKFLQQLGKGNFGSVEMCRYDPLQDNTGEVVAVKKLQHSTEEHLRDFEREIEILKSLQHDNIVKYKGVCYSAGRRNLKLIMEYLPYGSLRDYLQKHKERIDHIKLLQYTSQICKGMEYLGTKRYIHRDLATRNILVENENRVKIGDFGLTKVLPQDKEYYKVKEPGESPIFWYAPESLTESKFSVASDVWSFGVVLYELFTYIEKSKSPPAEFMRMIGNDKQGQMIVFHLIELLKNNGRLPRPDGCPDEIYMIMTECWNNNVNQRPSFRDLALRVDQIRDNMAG

SMILES | residual kinase activity (CAMK2B; 0.3 µM) | residual kinase activity (CDK16/CycY; 0.3 µM) | residual kinase activity (EIF2AK2; 0.3 µM) | residual kinase activity (JAK2; 0.3 µM) | residual kinase activity (NEK1; 0.3 µM) | residual kinase activity (PRKG2; 0.3 µM) | residual kinase activity (WEE1; 0.3 µM) | other results
COc1ccnc2[nH]cc(-c3cc(N)nc(N)c3)c12 [meriolin 16] | 74 % of control | 16 % of control | 95 % of control | 80 % of control | 67 % of control | 7 % of control | 99 % of control | residual kinase activity (CAMK2B; 0.03 µM): 103 % of control; residual kinase activity (CDK16/CycY; 0.03 µM): 64 % of control; residual kinase activity (EIF2AK2; 0.03 µM): 83 % of control; residual kinase activity (JAK2; 0.03 µM): 102 % of control; residual kinase activity (NEK1; 0.03 µM): 86 % of control; residual kinase activity (PRKG2; 0.03 µM): 48 % of control; residual kinase activity (WEE1; 0.03 µM): 80 % of control
c1ccc(CNc2cc(-c3c[nH]c4ncccc34)ccn2)cc1 [meriolin 36] | 83 % of control | 17 % of control | 79 % of control | 40 % of control | 84 % of control | 14 % of control | 72 % of control | residual kinase activity (CAMK2B; 3 µM): 31 % of control; residual kinase activity (CDK16/CycY; 3 µM): 3 % of control; residual kinase activity (EIF2AK2; 3 µM): 63 % of control; residual kinase activity (JAK2; 3 µM): 8 % of control; residual kinase activity (NEK1; 3 µM): 55 % of control; residual kinase activity (PRKG2; 3 µM): 2 % of control; residual kinase activity (WEE1; 3 µM): 37 % of control
